Data taken from patent publication US20110091540A1, “POLYMERIC COMPOSITIONS AND THEIR METHOD OF USE IN COMBINATION WITH ACTIVE AGENTS” (priority 2007, published 2011).

Assay: Clinical trial of Example 11: fecal metal excretion and stool weight
Assay type: in vivo, human
Details: groups receiving mannitol with CLP; passage through the entire gastrointestinal tract
Procedure: For this clinical trial, an open-label, non-randomized, multiple-dose study in eighteen healthy subjects divided into six groups of three subjects in each group was conducted. Subjects were placed into one of six groups on day six, based upon the previous five days of stool weights, so that the average daily stool weight is approximately equal across groups.
CLP (milled) with and without mannitol (Groups 1, 2, 5 and 6) was in size 00 HPMC capsules that are uncoated. CLP (beads) and mannitol alone were supplied in bottles so that they may put into size 00 HPMC capsules (Groups 3 and 4).
CLP was administered according to treatment assignment (Groups 1, 2, 3, and 4) in a fasted state, at least one hour prior to each of four meals/snack and administered with water. Subjects were restricted from additional fluids for one hour pre and post dose. For Groups 5 and 6, CLP is administered in a fed state, thirty minutes following the end of a meal and evening snack, administered with water and without any fluid restriction.
Each sample was individually weighed and the color and consistency of the stool noted. The weights were added together to determine the total fecal weight resulting from each day's intake. The entire weight of stool between the color markers was also totaled separately for both the baseline period and the experimental period. […]

OC[C@@H](O)[C@@H](O)[C@H](O)[C@H](O)CO [mannitol]
Effect of mannitol on fluid removal (stool weight): does not increase fluid removal and may decrease fluid removal
